# From ChEMBL document CHEMBL3044758, “Weed control in sunn hemp and its ability to suppress weed growth” (Crop Prot, 2011)
# How the values were obtained:
# Crotalaria juncea [1] = assay: Herbicidal tolerance in Crotalaria juncea (sunn hump) performance assessed as stand count at 1.12 kg/ha post-emergence treatment measured after 2 weeks; assay type: ADME, organism-based; conditions: in vivo, other, 336 h
# Digitaria sanguinalis [2] = assay: Herbicidal activity against Digitaria sanguinalis (hairy crabgrass) in sunn hemp assessed as weed control at 1.12 kg/ha post-emergence treatment measured after 2 weeks; assay type: functional
# Crotalaria juncea [3] = assay: Herbicidal tolerance in Crotalaria juncea (sunn hump) performance assessed as injury at 1.12 kg/ha post-emergence treatment measured after 2 weeks; assay type: ADME, organism-based; conditions: in vivo, other, 336 h
# Eragrostis cilianensis [4] = assay: Herbicidal activity against Eragrostis cilianensis (stinkgrass ) in sunn hemp assessed as weed control at 1.12 kg/ha post-emergence treatment measured after 2 weeks; assay type: functional
# Crotalaria juncea [5] = assay: Herbicidal tolerance in Crotalaria juncea (sunn hump) performance assessed as plant hight at 1.12 kg/ha post-emergence treatment measured after 2 weeks; assay type: ADME, organism-based; conditions: in vivo, other, 336 h
# Cyperus esculentus [6] = assay: Herbicidal activity against Cyperus esculentus (yellow nutsedge) in sunn hemp assessed as weed control at 1.12 kg/ha post-emergence treatment measured after 2 weeks; assay type: functional
# Cyperus esculentus [7] = assay: Herbicidal activity against Cyperus esculentus (yellow nutsedge) in sunn hemp assessed as weed control at 0.07 kg/ha post-emergence treatment measured after 2 weeks; assay type: functional
# Eragrostis cilianensis [8] = assay: Herbicidal activity against Eragrostis cilianensis (stinkgrass) in sunn hemp assessed as weed control at 0.07 kg/ha post-emergence treatment measured after 2 weeks; assay type: functional
# Crotalaria juncea [9] = assay: Herbicidal tolerance in Crotalaria juncea (sunn hump) performance assessed as plant hight at 0.07 kg/ha post-emergence treatment measured after 2 weeks; assay type: ADME, organism-based; conditions: in vivo, other, 336 h
# Crotalaria juncea [10] = assay: Herbicidal tolerance in Crotalaria juncea (sunn hump) performance assessed as injury at 0.07 kg/ha post-emergence treatment measured after 2 weeks; assay type: ADME, organism-based; conditions: in vivo, other, 336 h
# Crotalaria juncea [11] = assay: Herbicidal tolerance in Crotalaria juncea (sunn hump) performance assessed as stand count at 0.07 kg/ha post-emergence treatment measured after 2 weeks; assay type: ADME, organism-based; conditions: in vivo, other, 336 h
# Digitaria sanguinalis [12] = assay: Herbicidal activity against Digitaria sanguinalis (hairy crabgrass) in sunn hemp assessed as weed control at 0.07 kg/ha post-emergence treatment measured after 2 weeks; assay type: functional
SMILES,Activity (Crotalaria juncea [1]),Activity (Digitaria sanguinalis [2]) [%],Activity (Crotalaria juncea [3]) [%],Activity (Eragrostis cilianensis [4]) [%],Activity (Crotalaria juncea [5]) [cm],Activity (Cyperus esculentus [6]) [%],Activity (Cyperus esculentus [7]) [%],Activity (Eragrostis cilianensis [8]) [%],Activity (Crotalaria juncea [9]) [cm],Activity (Crotalaria juncea [10]) [%],Activity (Crotalaria juncea [11]),Activity (Digitaria sanguinalis [12]) [%]
CCC(CC)Nc1c([N+](=O)[O-])cc(C)c(C)c1[N+](=O)[O-] [PENDIMETHALIN],8.18 /m2,78,7,94,108,63,,,,,,
Cc1cnc(C2=NC(=O)C(C)(C(C)C)N2)c(C(=O)O)c1 (configuration not stated) [IMAZAPIC],,,,,,,91,93,110,9,8.18 /m2,76
